Molecular target: T1, α4β7 (adhesion of RPMI cells to CS-1) (Homo sapiens, UniProt P13612+P26010)
T1 construct: endogenous in cells
T1 sequence (P13612 34-1032): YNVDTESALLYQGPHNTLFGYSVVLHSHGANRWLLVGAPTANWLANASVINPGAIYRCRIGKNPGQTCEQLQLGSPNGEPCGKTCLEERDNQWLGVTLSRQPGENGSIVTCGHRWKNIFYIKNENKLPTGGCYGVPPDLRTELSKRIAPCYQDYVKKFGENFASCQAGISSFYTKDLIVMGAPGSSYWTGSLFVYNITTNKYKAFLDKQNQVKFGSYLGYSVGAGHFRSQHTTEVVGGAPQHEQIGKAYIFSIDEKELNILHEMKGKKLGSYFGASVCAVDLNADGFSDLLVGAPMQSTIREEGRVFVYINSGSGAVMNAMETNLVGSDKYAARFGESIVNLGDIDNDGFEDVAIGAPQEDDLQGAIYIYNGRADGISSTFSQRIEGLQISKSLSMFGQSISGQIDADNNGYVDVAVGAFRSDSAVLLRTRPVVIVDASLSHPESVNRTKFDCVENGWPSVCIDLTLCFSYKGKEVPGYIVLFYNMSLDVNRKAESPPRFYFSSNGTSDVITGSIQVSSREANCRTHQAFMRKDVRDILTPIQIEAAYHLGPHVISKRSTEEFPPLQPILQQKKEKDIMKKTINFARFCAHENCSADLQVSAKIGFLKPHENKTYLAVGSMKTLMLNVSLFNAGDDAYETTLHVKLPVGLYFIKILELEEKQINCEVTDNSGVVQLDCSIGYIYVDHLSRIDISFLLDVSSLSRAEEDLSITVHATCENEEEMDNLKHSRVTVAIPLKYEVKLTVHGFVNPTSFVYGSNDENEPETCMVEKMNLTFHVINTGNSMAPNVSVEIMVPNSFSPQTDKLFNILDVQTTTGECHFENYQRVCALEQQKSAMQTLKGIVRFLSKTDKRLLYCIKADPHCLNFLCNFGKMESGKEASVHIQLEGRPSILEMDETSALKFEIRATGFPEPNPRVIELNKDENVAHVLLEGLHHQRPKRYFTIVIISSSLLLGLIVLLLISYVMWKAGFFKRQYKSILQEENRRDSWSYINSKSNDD
T1 sequence (P26010 20-798): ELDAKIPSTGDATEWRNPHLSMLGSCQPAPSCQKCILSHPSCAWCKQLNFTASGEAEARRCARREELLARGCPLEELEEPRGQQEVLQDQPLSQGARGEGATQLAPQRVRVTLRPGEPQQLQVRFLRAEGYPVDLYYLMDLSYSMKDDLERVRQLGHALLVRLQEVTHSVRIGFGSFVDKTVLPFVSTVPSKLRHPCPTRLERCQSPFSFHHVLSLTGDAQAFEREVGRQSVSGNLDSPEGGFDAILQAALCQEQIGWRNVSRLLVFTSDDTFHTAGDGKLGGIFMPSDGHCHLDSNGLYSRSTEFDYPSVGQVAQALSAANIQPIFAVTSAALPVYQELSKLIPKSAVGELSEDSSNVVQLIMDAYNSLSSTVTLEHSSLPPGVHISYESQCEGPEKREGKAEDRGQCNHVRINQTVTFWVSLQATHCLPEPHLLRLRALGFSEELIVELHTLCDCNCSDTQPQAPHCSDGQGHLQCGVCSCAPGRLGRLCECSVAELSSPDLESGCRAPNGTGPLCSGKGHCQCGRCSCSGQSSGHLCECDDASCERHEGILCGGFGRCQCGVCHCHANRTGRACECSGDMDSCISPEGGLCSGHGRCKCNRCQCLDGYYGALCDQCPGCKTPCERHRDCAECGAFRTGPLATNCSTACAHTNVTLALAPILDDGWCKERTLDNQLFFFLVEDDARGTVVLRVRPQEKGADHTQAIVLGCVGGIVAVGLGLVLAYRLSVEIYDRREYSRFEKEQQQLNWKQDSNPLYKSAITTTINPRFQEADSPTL
Test: RPMI-CS-1 cell adhesion assay
Assay type: cell-based
Conditions: adhesion of RPMI B-cell line (expresses α4β7) to CS-1 peptide coated microwells; read-out: RPMI-CS-1 IC50 value range

IC50 [nM] | Compound
< 300 | COc1cc(OCCO)cc(OC)c1-c1ccc(C[C@H](NC(=O)c2c(Cl)cccc2Cl)C(=O)O)cc1 [Example 222, N-(2,6-Dichlorobenzoyl)-4-[2,6-dimethoxy-4-(2-hydroxyethoxy)phenyl]-L-phenylalanine]
< 300 | COc1cc(CN2CCN(CCO)CC2)cc(OC)c1-c1ccc(C[C@H](NC(=O)c2c(Cl)cccc2Cl)C(=O)O)cc1 [Example 250]
< 300 | COc1ccccc1-c1ccc(C[C@H](NC(=O)c2ccc(NS(=O)(=O)c3ccc(C)cc3)cc2Cl)C(=O)O)cc1 [Example 188, N-[2-Chloro-4-(tosylamino)benzoyl]-4-(2-methoxyphenyl)-L-phenylalanine]
< 300 | CCOC(=O)[C@H](Cc1ccc(-c2c(OC)cc(CN3CCN(C)CC3)cc2OC)cc1)NC(=O)c1c(F)cccc1F [Example 356]
> 5000 | COc1ccccc1-c1ccc(C[C@H](NC(=O)c2ccc(Cl)nc2)C(=O)O)cc1 [Example 93]
< 300 | COc1cccc(OC)c1-c1ccc(C[C@H](NC(=O)c2c(C)cccc2Cl)C(=O)O)cc1 [Example 277]
< 300 | N#Cc1ccccc1-c1ccc(C[C@H](NC(=O)c2c(Cl)cccc2Cl)C(=O)O)cc1 [Example 138]
1000 to 5000 | O=C(NCc1ccccc1)c1ccccc1-c1ccc(C[C@H](NC(=O)c2c(Cl)cccc2Cl)C(=O)O)cc1 [Example 53, N-(2,6-Dichlorobenzoyl)-4-[2-(N-benzylcarbamoyl)phenyl]-L-phenylalanine]
< 300 | COc1ccccc1-c1ccc(C[C@H](NC(=O)c2c(Cl)cccc2Cl)C(=O)O)cc1C(C)=NO [Example 351, N-(2,6-Dichlorobenzoyl)-3-[1-(hydroxyimino)ethyl]-4-(2-methoxyphenyl)-L-phenylalanine]
< 300 | O=C(N[C@@H](Cc1ccc(-c2c(OCCO)ccc3c2OCO3)cc1)C(=O)O)c1c(Cl)cccc1Cl [Example 238, N-(2,6-Dichlorobenzoyl)-4-[2,3-methylenedioxy-6-(2-hydroxyethoxy)phenyl]-L-phenylalanine]
300 to 1000 | COc1sccc1-c1ccc(C[C@H](NC(=O)c2c(Cl)cccc2Cl)C(=O)O)cc1 [Example 136]
300 to 1000 | COc1ccccc1-c1ccc(C[C@H](NC(=O)c2cccc(NS(=O)(=O)C(F)(F)F)c2Cl)C(=O)O)cc1 [Example 181, N-[2-Chloro-3-[(trifluoromethanesulfonyl)amino]-benzoyl]-4-(2-methoxyphenyl)-L-phenylalanine]
< 300 | COc1cc(CN2CCNCC2)cc(OC)c1-c1ccc(C[C@H](NC(=O)c2c(Cl)cccc2Cl)C(=O)O)cc1 [Example 262, N-(2,6-Dichlorobenzoyl)-4-[2,6-dimethoxy-4-[(1-piperazinyl)methyl]phenyl]-L-phenylalanine]
< 300 | CCOc1cccc(OCC)c1-c1ccc(C[C@H](NC(=O)c2c(Cl)cccc2Cl)C(=O)O)cc1 [Example 13, N-(2,6-Dichlorobenzoyl)-4-(2,6-diethoxyphenyl)-L-phenylalanine]
1000 to 5000 | O=C(NCCN1CCOCC1)c1ccccc1-c1ccc(C[C@H](NC(=O)c2c(Cl)cccc2Cl)C(=O)O)cc1 [Example 59, N-(2,6-Dichlorobenzoyl)-4-[2-[N-(2-morpholinoethyl)carbamoyl]phenyl]-L-phenylalanine]
1000 to 5000 | COc1ccccc1-c1ccc(C[C@H](NC(=O)c2ccc(C)nc2Cl)C(=O)O)cc1 [Example 94]
300 to 1000 | COC(=O)[C@H](Cc1ccc(-c2ccccc2OC)cc1)NC(=O)c1c(Cl)cccc1Cl [Example 1A, N-(2,6-Dichlorobenzoyl)-4-(2-methoxyphenyl)-L-phenylalanine methyl ester]
< 300 | COc1cccc(OC)c1-c1ccc(C[C@H](NC(=O)c2c(Cl)cccc2Cl)C(=O)O)cc1C(C)O (stereo partly shown) [Example 131]

IC50 [nM] | Compound
> 5000 | COc1ccccc1-c1ccc(C[C@H](NC(=O)c2ccc(NC(C)=O)cc2)C(=O)O)cc1 [Example 104]
< 300 | CN(C)S(=O)(=O)c1ccccc1-c1ccc(C[C@H](NC(=O)c2c(Cl)cccc2Cl)C(=O)O)cc1 [Example 21, N-(2,6-Dichlorobenzoyl)-4-[2-(N,N-dimethylsulfamoyl)phenyl]-L-phenylalanine]
< 300 | COCOc1ccc2c(c1-c1ccc(C[C@H](NC(=O)c3c(Cl)cccc3Cl)C(=O)O)cc1)OCO2 [Example 235, N-(2,6-Dichlorobenzoyl)-4-[2,3-methylenedioxy-6-(methoxymethoxy)phenyl]-L-phenylalanine]
< 300 | O=C(N[C@@H](Cc1ccc(-c2c(O)ccc3c2OCO3)cc1)C(=O)O)c1c(Cl)cccc1Cl [Example 236, N-(2,6-Dichlorobenzoyl)-4-(2,3-methylenedioxy-6-hydroxyphenyl)-L-phenylalanine]
1000 to 5000 | CCCCNC(=O)c1ccccc1-c1ccc(C[C@H](NC(=O)c2c(Cl)cccc2Cl)C(=O)O)cc1 [Example 55, N-(2,6-Dichlorobenzoyl)-4-[2-(N-n-butylcarbamoyl)phenyl]-L-phenylalanine]
1000 to 5000 | COc1cccc(OC)c1-c1ccc(C[C@H](NC(=O)c2c(Cl)cccc2Cl)C(=O)OCc2cccnc2)cc1 [Example 273, N-(2,6-Dichlorobenzoyl)-4-(2,6-dimethoxyphenyl)-L-phenylalanine 3-pyridylmethyl ester]
< 300 | CN(C)c1ccccc1-c1ccc(C[C@H](NC(=O)c2c(Cl)cccc2Cl)C(=O)O)cc1 [Example 27, N-(2,6-Dichlorobenzoyl)-4-[2-(N,N-dimethylamino)phenyl]-L-phenylalanine]
1000 to 5000 | COc1cccc(OC)c1-c1ccc(C[C@H](NC(=O)c2cccc(C)c2)C(=O)O)cc1 [Example 281]
300 to 1000 | COc1ccccc1-c1ccc(C[C@H](NC(=O)c2ccc(NC(=S)NC(C)C)cc2Cl)C(=O)O)cc1 [Example 195]
1000 to 5000 | CS(=O)(=O)Nc1cccc(-c2ccc(C[C@H](NC(=O)c3c(Cl)cccc3Cl)C(=O)O)cc2)c1 [Example 123]
< 300 | COc1cc(OC)c(-c2ccc(C[C@H](NC(=O)c3c(Cl)cccc3Cl)C(=O)O)cc2)c(OC)c1 [Example 11, N-(2,6-Dichlorobenzoyl)-4-(2,4,6-trimethoxyphenyl)-L-phenylalanine]
300 to 1000 | COc1ccccc1-c1ccc(C[C@H](NC(=O)c2cccnc2Cl)C(=O)O)cc1 [Example 90]
< 300 | N#CCOc1ccc2c(c1-c1ccc(C[C@H](NC(=O)c3c(Cl)cccc3Cl)C(=O)O)cc1)OCO2 [Example 239, N-(2,6-Dichlorobenzoyl)-4-[2,3-methylenedioxy-6-(cyanomethoxy)phenyl]-L-phenylalanine]
< 300 | COc1cccc(OC)c1-c1ccc(C[C@H](NC(=O)c2ccccc2C(C)C)C(=O)O)cc1 [Example 280]
< 300 | COc1ccc(Br)c(OC)c1-c1ccc(C[C@H](NC(=O)c2c(Cl)cccc2Cl)C(=O)O)cc1 [Example 322, N-(2,6-Dichlorobenzoyl)-4-(2,6-dimethoxy-3-bromophenyl)-L-phenylalanine]
300 to 1000 | O=C(N[C@@H](Cc1ccc(-c2ccccn2)cc1)C(=O)O)c1c(Cl)cccc1Cl [Example 137]
300 to 1000 | O=C(N[C@@H](Cc1ccc(-c2ccsc2)cc1)C(=O)O)c1c(Cl)cccc1Cl [Example 128]
> 5000 | COc1ccccc1-c1ccc(C[C@H](NC(=O)c2ccc([N+](=O)[O-])cc2)C(=O)O)cc1 [Example 101]

Compound | IC50 [nM]
N-(2,6-Dichlorobenzoyl)-4-(2,6-dimethoxyphenyl)-L-phenylalanine 2-pyridylmethyl ester [Example 272] | 300 to 1000
